From PMC11252418, “Specific glycine-dependent enzyme motion determines the potency of conformation selective inhibitors of threonyl-tRNA synthetase” (Communications Biology, 2024)
Where “and” joins values, the source holds several entries; their conditions need not be identical. Equal entries are not always repeated.

Key:
Experiment in all cases: ATP hydrolysis assay
[1] = target: T1, EcThrRS_G463A (Escherichia coli, UniProt P0A8M3, G463A); format: biochemical; settings: ATP hydrolysis activity
T1 construct: The E. coli ThrRS (residues 242-642, Supplementary Note 1) wild type; 6xHis (C); made in house; host or cells: E. coli BL21 (DE3)
T1 sequence (P0A8M3 242-642 G463A): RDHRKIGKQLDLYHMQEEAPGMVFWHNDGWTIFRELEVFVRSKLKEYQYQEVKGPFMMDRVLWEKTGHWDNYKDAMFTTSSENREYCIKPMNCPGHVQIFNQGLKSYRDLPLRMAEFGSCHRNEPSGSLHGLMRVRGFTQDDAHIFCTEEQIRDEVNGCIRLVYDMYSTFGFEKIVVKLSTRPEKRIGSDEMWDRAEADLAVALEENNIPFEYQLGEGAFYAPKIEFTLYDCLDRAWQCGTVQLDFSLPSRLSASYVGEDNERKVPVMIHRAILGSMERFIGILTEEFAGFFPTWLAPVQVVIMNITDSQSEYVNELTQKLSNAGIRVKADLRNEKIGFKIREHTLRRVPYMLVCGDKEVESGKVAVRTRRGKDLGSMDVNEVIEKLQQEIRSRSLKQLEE
Description: (§1) 200 nM EcThrRS wide type and mutants, ObaO and ObaO_S464G mutant were incubated with serially diluted OB (0 to 10 μM for EcThrRS, 0 to 40 μM for ObaO) in a buffer containing 25 mM HEPES pH 7.5, 50 mM NaCl, 40 mM MgCl2, 30 mM KCl, 0.01 mg/mL bovine serum albumin (BSA), and 0.004% Tween-20 at 37 °C for 4 h and then mixed 1:1 with a substrate mixture containing 4 μM ATP, 40 μM L-threonine, 25 mM HEPES pH 7.5, 50 mM NaCl, 40 mM MgCl2, 30 mM KCl, 0.01 mg/mL BSA, and 0.004% Tween-20. The ATP hydrolysis reaction was performed at 37 °C for 4 h.
(§2) After incubation, the detection solution from the Kinase-Glo® luminescent kit (Promega, USA) was added to the reaction system at a 1:1 ratio, and the mixture was gently shaken for 10 min. The chemiluminescence signal was measured using a microplate reader (Tecan, USA). All experiments were performed in four replicates. The data were processed using GraphPad Prism 8 software.

[2] = target: T2, EcThrRS_A316N (Escherichia coli, UniProt P0A8M3, A316N); format: biochemical; settings: for ATP hydrolysis activity, inhibitory curve data point: OB, replicates, sheet Fig.S4b
T2 construct: The E. coli ThrRS (residues 242-642, Supplementary Note 1) wild type; 6xHis (C); made in house; host or cells: E. coli BL21 (DE3)
T2 sequence (P0A8M3 242-642 A316N): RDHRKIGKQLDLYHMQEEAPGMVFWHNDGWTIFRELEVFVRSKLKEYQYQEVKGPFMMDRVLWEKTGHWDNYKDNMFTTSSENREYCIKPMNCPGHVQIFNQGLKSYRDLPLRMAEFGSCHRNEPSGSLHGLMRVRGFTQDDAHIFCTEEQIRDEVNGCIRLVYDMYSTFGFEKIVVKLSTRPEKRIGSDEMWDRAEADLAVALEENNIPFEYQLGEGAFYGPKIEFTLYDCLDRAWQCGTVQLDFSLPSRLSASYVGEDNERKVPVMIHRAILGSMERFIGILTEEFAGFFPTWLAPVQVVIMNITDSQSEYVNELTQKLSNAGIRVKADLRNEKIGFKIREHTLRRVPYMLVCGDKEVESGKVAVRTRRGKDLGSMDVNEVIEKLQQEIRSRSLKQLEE
Description: as §1, §2

[3] = target: T3, EcThrRS_L489M (Escherichia coli, UniProt P0A8M3, L489M); format: biochemical; settings: for ATP hydrolysis activity, inhibitory curve data point: OB, replicates, sheet Fig.2b
T3 construct: The E. coli ThrRS (residues 242-642, Supplementary Note 1) wild type; 6xHis (C); made in house; host or cells: E. coli BL21 (DE3)
T3 sequence (P0A8M3 242-642 L489M): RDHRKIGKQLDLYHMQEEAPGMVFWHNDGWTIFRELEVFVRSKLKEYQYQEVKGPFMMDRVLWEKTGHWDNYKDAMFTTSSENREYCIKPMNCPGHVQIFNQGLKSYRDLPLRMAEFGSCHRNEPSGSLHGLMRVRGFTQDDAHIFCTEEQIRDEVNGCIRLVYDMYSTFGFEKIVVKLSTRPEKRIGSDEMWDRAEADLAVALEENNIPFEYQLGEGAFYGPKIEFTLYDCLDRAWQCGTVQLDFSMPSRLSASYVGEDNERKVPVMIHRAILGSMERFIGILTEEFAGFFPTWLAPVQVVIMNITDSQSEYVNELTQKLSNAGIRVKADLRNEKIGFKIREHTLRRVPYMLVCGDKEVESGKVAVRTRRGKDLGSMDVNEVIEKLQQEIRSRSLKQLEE
Description: as §1, §2

[4] = target: T4, EcThrRS_G463S (Escherichia coli, UniProt P0A8M3, G463S); format: biochemical; settings: for ATP hydrolysis activity, inhibitory curve data point: OB, replicates, sheet Fig.2b
T4 construct: The E. coli ThrRS (residues 242-642, Supplementary Note 1) wild type; 6xHis (C); made in house; host or cells: E. coli BL21 (DE3)
T4 sequence (P0A8M3 242-642 G463S): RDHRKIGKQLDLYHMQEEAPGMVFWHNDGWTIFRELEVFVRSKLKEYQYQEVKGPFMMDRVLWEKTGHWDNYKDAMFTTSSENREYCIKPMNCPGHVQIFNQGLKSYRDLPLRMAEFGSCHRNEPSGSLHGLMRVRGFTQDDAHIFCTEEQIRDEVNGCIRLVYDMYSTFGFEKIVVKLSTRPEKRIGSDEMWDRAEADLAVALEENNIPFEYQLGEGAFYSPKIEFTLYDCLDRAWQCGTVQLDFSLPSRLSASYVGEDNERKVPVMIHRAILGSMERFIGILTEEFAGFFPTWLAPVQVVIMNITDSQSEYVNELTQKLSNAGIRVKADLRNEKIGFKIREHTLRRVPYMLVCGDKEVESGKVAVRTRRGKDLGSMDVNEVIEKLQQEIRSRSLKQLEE
Description: as §1, §2

[5] = tested on: ObaO_S464G; format: biochemical, Pseudomonas fluorescens; settings: for ATP hydrolysis activity, inhibitory curve data point: OB, replicates, sheet Fig.S11b
Description: as §1, §2

[6] = tested on: ObaO_WT; format: biochemical, Pseudomonas fluorescens; settings: for ATP hydrolysis activity, inhibitory curve data point: OB, replicates, sheet Fig.S11b
Description: as §1, §2

O=C(N[C@@H]1C(=O)O[C@@H]1Cc1ccc([N+](=O)[O-])cc1)c1cccc(O)c1O [OB, Obafluorin]
inhibitory effect [1]: no inhibitory effect | IC50 ([2]; ATP hydrolysis activity): 0.848 µM | ATP hydrolysis activity, inhibitory curve data point ([2]; Log10 Conc. 0.690, A316N): 85.962 and 86.560 and 99.695 and 84.767 | ATP hydrolysis activity, inhibitory curve data point ([2]; Log10 Conc. 0.991, A316N): 88.637 and 98.163 and 100.359 and 100.821 | ATP hydrolysis activity, inhibitory curve data point ([2]; Log10 Conc. 1.290, A316N): 94.677 and 95.220 and 104.669 and 107.135 | ATP hydrolysis activity, inhibitory curve data point ([2]; Log10 Conc. 1.591, A316N): 79.114 and 84.617 and 87.973 and 87.592 | ATP hydrolysis activity, inhibitory curve data point ([2]; Log10 Conc. 1.892, A316N): 95.097 and 93.442 and 93.401 and 99.302 | ATP hydrolysis activity, inhibitory curve data point ([2]; Log10 Conc. 2.193, A316N): 78.735 and 83.708 and 90.525 and 92.235 | ATP hydrolysis activity, inhibitory curve data point ([2]; Log10 Conc. 2.494, A316N): 68.683 and 74.410 and 84.890 and 82.431 | ATP hydrolysis activity, inhibitory curve data point ([2]; Log10 Conc. 2.796, A316N): 50.753 and 55.935 and 67.595 and 73.554 | ATP hydrolysis activity, inhibitory curve data point ([2]; Log10 Conc. 3.097, A316N): 29.054 and 40.656 and 45.720 and 53.072 | ATP hydrolysis activity, inhibitory curve data point ([2]; Log10 Conc. 3.398, A316N): -3.828 and 7.860 and 7.462 and 26.771 | ATP hydrolysis activity, inhibitory curve data point ([2]; Log10 Conc. 3.699, A316N): 7.311 and 15.246 and 17.984 and 36.982 | IC50 ([3]; ATP hydrolysis activity): 0.215 µM | ATP hydrolysis activity, inhibitory curve data point ([3]; Log10 Conc. 3.097, L489M): 14.911 and 30.795 and 20.792 and 22.166 | ATP hydrolysis activity, inhibitory curve data point ([3]; Log10 Conc. 3.398, L489M): 25.404 and -0.594 and -13.763 and 3.682 | ATP hydrolysis activity, inhibitory curve data point ([3]; Log10 Conc. 3.699, L489M): 26.774 and 18.620 and -26.210 and 6.396 | ATP hydrolysis activity, inhibitory curve data point ([3]; Log10 Conc. 4.000, L489M): 5.096 and 5.493 and 1.083 and 8.709 | inhibition at 5 µM ([4]; 5 μM OB): ~10% | inhibitory activity ([4]; ATP hydrolysis activity): poor activity | ATP hydrolysis activity, inhibitory curve data point ([4]; Log10 Conc. 1.279, G463S): 106.793 and 98.818 and 94.863 and 99.954 | ATP hydrolysis activity, inhibitory curve data point ([4]; Log10 Conc. 1.597, G463S): 100.752 and 93.821 and 90.230 and 89.239 | ATP hydrolysis activity, inhibitory curve data point ([4]; Log10 Conc. 1.892, G463S): 119.110 and 112.303 and 110.507 and 107.832 | ATP hydrolysis activity, inhibitory curve data point ([4]; Log10 Conc. 2.193, G463S): 113.765 and 106.055 and 104.056 and 103.914 | ATP hydrolysis activity, inhibitory curve data point ([4]; Log10 Conc. 2.495, G463S): 113.955 and 101.766 and 100.028 and 98.945 | ATP hydrolysis activity, inhibitory curve data point ([4]; Log10 Conc. 2.796, G463S): 114.391 and 100.345 and 101.496 and 101.074 | ATP hydrolysis activity, inhibitory curve data point ([4]; Log10 Conc. 3.097, G463S): 109.765 and 91.814 and 95.122 and 94.032 | ATP hydrolysis activity, inhibitory curve data point ([4]; Log10 Conc. 3.398, G463S): 99.125 and 85.681 and 84.901 and 83.398 | ATP hydrolysis activity, inhibitory curve data point ([4]; Log10 Conc. 3.699, G463S): 98.676 and 85.750 and 87.909 and 87.887 | ATP hydrolysis activity, inhibitory curve data point ([4]; Log10 Conc. 4.000, G463S): 100.800 and 85.432 and 86.068 and 84.275 | IC50 ([5]; ATP hydrolysis activity): 3.9 µM | ATP hydrolysis activity, inhibitory curve data point ([5]; Log10 Conc. 1.290, ObaO_S464G): 99.512 and 99.495 and 99.321 and 98.415 | ATP hydrolysis activity, inhibitory curve data point ([5]; Log10 Conc. 1.591, ObaO_S464G): 100.192 and 100.232 and 100.159 and 99.124 | ATP hydrolysis activity, inhibitory curve data point ([5]; Log10 Conc. 1.892, ObaO_S464G): 100.052 and 100.356 and 99.951 and 99.355 | ATP hydrolysis activity, inhibitory curve data point ([5]; Log10 Conc. 2.193, ObaO_S464G): 99.838 and 99.793 and 100.063 and 99.551 | ATP hydrolysis activity, inhibitory curve data point ([5]; Log10 Conc. 2.494, ObaO_S464G): 100.255 and 99.793 and 99.917 and 100.035 | ATP hydrolysis activity, inhibitory curve data point ([5]; Log10 Conc. 2.796, ObaO_S464G): 99.484 and 99.326 and 99.169 and 98.438 | ATP hydrolysis activity, inhibitory curve data point ([5]; Log10 Conc. 3.097, ObaO_S464G): 97.897 and 97.852 and 97.621 and 97.352 | ATP hydrolysis activity, inhibitory curve data point ([5]; Log10 Conc. 3.398, ObaO_S464G): 93.815 and 92.992 and 93.578 and 91.403 | ATP hydrolysis activity, inhibitory curve data point ([5]; Log10 Conc. 3.699, ObaO_S464G): 77.343 and 76.749 and 76.793 and 77.009 | ATP hydrolysis activity, inhibitory curve data point ([5]; Log10 Conc. 4.000, ObaO_S464G): 40.598 and 39.832 and 38.831 and 45.976 | ATP hydrolysis activity, inhibitory curve data point ([5]; Log10 Conc. 4.301, ObaO_S464G): -1.615 and -1.887 and 0.161 and 3.342 | inhibitory effect ([6]; ATP hydrolysis activity): no inhibitory effect | ATP hydrolysis activity, inhibitory curve data point ([6]; Log10 Conc. 1.290, ObaO_WT): 107.974 and 109.176 and 107.694 and 98.285 | ATP hydrolysis activity, inhibitory curve data point ([6]; Log10 Conc. 1.591, ObaO_WT): 108.081 and 109.543 and 108.587 and 102.335 | ATP hydrolysis activity, inhibitory curve data point ([6]; Log10 Conc. 1.892, ObaO_WT): 104.532 and 105.736 and 104.839 and 104.593 | ATP hydrolysis activity, inhibitory curve data point ([6]; Log10 Conc. 2.193, ObaO_WT): 105.347 and 104.330 and 104.759 and 104.369 | ATP hydrolysis activity, inhibitory curve data point ([6]; Log10 Conc. 2.494, ObaO_WT): 105.496 and 103.616 and 104.222 and 104.732 | ATP hydrolysis activity, inhibitory curve data point ([6]; Log10 Conc. 2.796, ObaO_WT): 106.437 and 103.177 and 103.705 and 104.207 | ATP hydrolysis activity, inhibitory curve data point ([6]; Log10 Conc. 3.097, ObaO_WT): 106.181 and 102.182 and 103.687 and 102.015 | ATP hydrolysis activity, inhibitory curve data point ([6]; Log10 Conc. 3.398, ObaO_WT): 106.327 and 105.039 and 104.877 and 99.875 | ATP hydrolysis activity, inhibitory curve data point ([6]; Log10 Conc. 3.699, ObaO_WT): 106.394 and 102.812 and 104.598 and 101.892 | ATP hydrolysis activity, inhibitory curve data point ([6]; Log10 Conc. 4.000, ObaO_WT): 107.419 and 105.942 and 102.834 and 91.914 | ATP hydrolysis activity, inhibitory curve data point ([6]; Log10 Conc. 4.301, ObaO_WT): 100.516 and 99.049 and 100.129 and 101.285
